According to paper PMC3236199, “Development of Derivatives of 3, 3′-Diindolylmethane as Potent Leishmania donovani Bi-Subunit Topoisomerase IB Poisons” (PLoS ONE, 2011):

Tests used:
[1] = system: DIM resistant parasites (LdDR50); assay: DNA fragmentation assay (cell death detection ELISA), DIM resistant; type: cell-based, Leishmania donovani; details: 20 µM
Description: Leishmanial cells were cultured in 24-well plates and treated with 20 µM of DIM, DPDIM, DMDIM and DMODIM for different times. Samples were collected at requisite time points and subjected to measurement of DNA fragmentations. Cytoplasmic histone-associated DNA fragments (mononucleosome and oligonucleosomes) formed during apoptosis were detected using a cell death detection ELISA kit (Roche Biochemicals) by spectrophotometric measurement of microtiter plates in a Thermo MULTISKAN EX plate reader at 405 nm. The relative percentages (with respect to samples treated with micrococcal nuclease and normalized to percentage values) were plotted as units of time or drug concentrations as described previously.
The internucleosomal DNA digestion by an endogenous nuclease (genomic DNA fragmentation) is considered as a hallmark of apoptotic cell death. […] To investigate whether these derivatives also do the same, we performed the DNA fragmentation assay with wild type L. donovani AG83 promastigotes and DIM resistant parasites (Fig. 4) by ELISA as described in Materials and Methods. […] DNA fragmentation increased to 85%, 89%, 81% and 71% at 8 h of treatment in wild type parasites. The DIM resistant parasites (LdDR50) have much less effect in DNA fragmentation (13% at 6 h and 17% at 8 h) when treated with 20 µM DIM. On the other hand the extents of DNA fragmentations were 63%, 51% and 40% at 6 h treatment with DPDIM, DMDIM and DMODIM respectively. The extent of fragmentation increased to 82%, 74% and 65% after treatment for 8 h with the drugs as mentioned above.
Figure 4 DIM derivatives-induced fragmentation of genomic DNA in wild type and DIM resistant parasites. Relative percentage of DNA fragmentation measured by cell death detection ELISA kit in L. donovani promastigotes treated with DIM, DPDIM, DMDIM and DMODIM. The experiments were performed three times and representative data from one of these experiments as means ± SD.

[2] = system: DIM resistant L. donovani axenic amastigotes; assay: Cell viability assay, DIM resistant axenic amastigotes; type: cell-based; details: Leishmania donovani, 12 h, read-out: growth inhibited
Description: L. donovani strain AG83 and DIM resistant parasite DR50 promastigotes were grown at 22°C in M199 liquid media supplemented with 10% FBS as described. Axenic amastigotes were cultured in modified M199 medium (pH 5.3) supplemented with 10 mM sodium succinate, 40 mM HEPES and 25% FCS and maintained at 37°C with 5% CO2.The effect of drugs on the viability of Leishmania parasites was determined by direct microscopic counting using light microscope (40× objective) in a haemocytometer. The cells at the exponential phase were collected and transferred into 24-well plate (3.5×10^6 cells per well). The cells were then incubated for 12 h in the presence of various concentrations of DIM, DPDIM, DMDIM and DMODIM (1, 5, 10, 20 and 50 µM). For other experiments, 10^4 cells were taken and grown in presence of the respective derivatives for a period of 30 days. For each 5 day interval, a small amount of aliquots were taken out. After incubation the cells were centrifuged and cell pellet was washed with PBS (1×) twice and finally suspended in 1 ml PBS (1×). Fifty µl of aliquot was taken, mixed with 0.4% trypan blue solution and incubated for 3 min at 22°C. One drop of the mixture was transferred to haemocytometer and the clear (live) and blue (dead) cells were counted. The total number of viable cells in aliquot was calculated by multiplying the total number of viable cells by 2 (the dilution factor for trypan blue). […] Percentages of viable cells were calculated using the formula: [drawing 1]
Figure 3 Effectiveness of clearance of internalized L. donovani (AG83) from in vitro infected mouse M [drawing 3] . […] Cells were fixed, stained with Giemsa and counted under bright field microscope. […] Experiments were carried out for three times and representative results are the mean ± S.D. (B) Growth of DIM resistant L. donovani axenic amastigotes were monitored in presence of increasing concentrations (2, 5, 10, 20 and 50 µM) of DIM, DPDIM, DMDIM and DMODIM for 12 h. […] Growth of the parasites treated with the compounds was expressed as percentage of the viable promastigotes compared with that of control. […]

| Structure (SMILES) | fragmentation of DNA ([1]; 6 h) [%] | fragmentation of DNA ([1]; 8 h) [%] | inhibition at 50 µM [2] [%] |
| --- | --- | --- | --- |
| c1ccc2c(Cc3c[nH]c4ccccc34)c[nH]c2c1 [DIM, 3, 3′-diindolyl methane, reference compound] | 13 | 17 | – |
| Cc1[nH]c2ccccc2c1Cc1c(C)[nH]c2ccccc12 [DMDIM, 2,2′-dimethyl 3,3′-diindolyl methane] | 51 | 74 | 92 |
| COc1ccc2[nH]cc(Cc3c[nH]c4ccc(OC)cc34)c2c1 [DMODIM, 5,5′-dimethoxy 3,3′-diindolyl methane] | 40 | 65 | 79 |
| c1ccc(-c2[nH]c3ccccc3c2Cc2c(-c3ccccc3)[nH]c3ccccc23)cc1 [DPDIM, 2,2′-diphenyl 3,3′-diindolyl methane] | 63 | 82 | 98 |
